Results taken from ChEMBL document CHEMBL1201862, “PubChem BioAssay data set” (2004).
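Exposure lasted 48 hours, with cells grown in 96-well plates and compounds tested at five concentrations. GI50 marks 50% less growth.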 Calls of active or inactive are those of the source. No stated cut-off is given here; in the data, active = GI50 up to about 1.1 µM and inactive = higher.

How the values were obtained:
Assay in all cases: inhibition of tumour cell growth, NCI panel, 48 h
HT-29 = test system: HT-29
DU-145 = test system: DU-145
SK-MEL-2 = test system: SK-MEL-2
K562 = test system: K562
MCF7 = test system: MCF7
COLO 205 = test system: COLO 205
MDA-N = test system: MDA-N
NCI/ADR-RES = test system: NCI/ADR-RES
A498 = test system: A498
SF-295 = test system: SF-295
HOP-92 = test system: HOP-92
RXF 393 = test system: RXF 393
SF-539 = test system: SF-539
MDA-MB-231 = test system: MDA-MB-231
NCI-H23 = test system: NCI-H23
ACHN = test system: ACHN
TK-10 = test system: TK-10
SW-620 = test system: SW-620
OVCAR-4 = test system: OVCAR-4
HCT-15 = test system: HCT-15
SNB-19 = test system: SNB-19
CCRF-CEM = test system: CCRF-CEM
SK-OV-3 = test system: SK-OV-3
SF-268 = test system: SF-268
LOX IMVI = test system: LOX IMVI
MDA-MB-435 = test system: MDA-MB-435
SK-MEL-28 = test system: SK-MEL-28
U-251 = test system: U-251
HL-60 = test system: HL-60
HCT-116 = test system: HCT-116
NCI-H226 = test system: NCI-H226
786-0 = test system: 786-0
Malme-3M = test system: Malme-3M
BT-549 = test system: BT-549
RPMI-8226 = test system: RPMI-8226
UO-31 = test system: UO-31
HCC 2998 = test system: HCC 2998
SN12C = test system: SN12C
IGROV-1 = test system: IGROV-1
UACC-257 = test system: UACC-257
NCI-H522 = test system: NCI-H522
A549 = test system: A549
HOP-62 = test system: HOP-62
OVCAR-8 = test system: OVCAR-8
T47D = test system: T47D
M14 = test system: M14
OVCAR-3 = test system: OVCAR-3
CAKI-1 = test system: CAKI-1
Hs-578T = test system: Hs-578T
UACC-62 = test system: UACC-62
NCI-H460 = test system: NCI-H460
SNB-75 = test system: SNB-75
SR = test system: SR
SK-MEL-5 = test system: SK-MEL-5
OVCAR-5 = test system: OVCAR-5
PC-3 = test system: PC-3
KM12 = test system: KM12
EKVX = test system: EKVX
MOLT-4 = test system: MOLT-4

O=C(O)C[S+]([O-])c1ccc2c3c(cccc13)C(=O)c1ccccc1-2 (configuration not stated) was tested, and the GI50 (HT-29) was > 100 µM (inactive), the GI50 (DU-145) was > 100 µM (inactive) and the GI50 (SK-MEL-2) was > 100 µM (inactive). The GI50 (K562) was > 100 µM (inactive), the GI50 (MCF7) was > 100 µM (inactive) and the GI50 (COLO 205) was > 100 µM (inactive). The GI50 (MDA-N) was > 100 µM (inactive), the GI50 (NCI/ADR-RES) was > 100 µM (inactive) and the GI50 (A498) was > 100 µM (inactive). For the same molecule, the GI50 (SF-295) was > 100 µM (inactive), the GI50 (HOP-92) was > 100 µM (inactive) and the GI50 (RXF 393) was > 100 µM (inactive). The GI50 (SF-539) was > 100 µM (inactive), the GI50 (MDA-MB-231) was > 100 µM (inactive) and the GI50 (NCI-H23) was > 100 µM (inactive). The GI50 (ACHN) was > 100 µM (inactive), the GI50 (TK-10) was > 100 µM (inactive) and the GI50 (SW-620) was > 100 µM (inactive). For the same molecule, the GI50 (OVCAR-4) was > 100 µM (inactive), the GI50 (HCT-15) was greater than 100 µM and the GI50 (SNB-19) was > 100 µM (inactive). For the same molecule, the GI50 (CCRF-CEM) was > 100 µM (inactive), the GI50 (SK-OV-3) was > 100 µM (inactive) and the GI50 (SF-268) was > 100 µM (inactive). For the same molecule, the GI50 (LOX IMVI) was > 100 µM (inactive), the GI50 (MDA-MB-435) was > 100 µM (inactive) and the GI50 (SK-MEL-28) was > 100 µM (inactive). For the same molecule, the GI50 (U-251) was > 100 µM (inactive), the GI50 (HL-60) was > 100 µM (inactive) and the GI50 (HCT-116) was > 100 µM (inactive). The GI50 (NCI-H226) was > 100 µM (inactive), the GI50 (786-0) was > 100 µM (inactive) and the GI50 (Malme-3M) was > 100 µM (inactive). The GI50 (BT-549) was > 100 µM (inactive), the GI50 (RPMI-8226) was > 100 µM (inactive) and the GI50 (UO-31) was > 100 µM (inactive). The GI50 (HCC 2998) was > 100 µM (inactive), the GI50 (SN12C) was > 100 µM (inactive) and the GI50 (IGROV-1) was > 100 µM (inactive). The GI50 (UACC-257) was > 100 µM (inactive), the GI50 (NCI-H522) was > 100 µM (inactive) and the GI50 (A549) was > 100 µM (inactive). For the same molecule, the GI50 (HOP-62) was > 100 µM (inactive), the GI50 (OVCAR-8) was > 100 µM (inactive) and the GI50 (T47D) was > 100 µM (inactive). For the same molecule, the GI50 (M14) was > 100 µM (inactive), the GI50 (OVCAR-3) was > 100 µM (inactive) and the GI50 (CAKI-1) was > 100 µM (inactive). For the same molecule, the GI50 (Hs-578T) was > 100 µM (inactive), the GI50 (UACC-62) was > 100 µM (inactive) and the GI50 (NCI-H460) was > 100 µM (inactive). The GI50 (SNB-75) was > 100 µM (inactive), the GI50 (SR) was > 100 µM (inactive) and the GI50 (SK-MEL-5) was > 100 µM (inactive). The GI50 (OVCAR-5) was > 100 µM (inactive), the GI50 (PC-3) was > 100 µM (inactive) and the GI50 (KM12) was > 100 µM (inactive). For the same molecule, the GI50 (EKVX) was 55.1 µM (inactive).

CCOC(=O)c1c(C)n(-c2ccc(C)cc2)c2c1cc(O)c1[nH]c3c(c12)CCCC3 was tested, and the GI50 (HT-29) was 14.9 µM (inactive), the GI50 (DU-145) was 12.8 µM (inactive) and the GI50 (SK-MEL-2) was 12.4 µM (inactive). The GI50 (K562) was 17.7 µM (inactive), the GI50 (MCF7) was 16.5 µM (inactive) and the GI50 (COLO 205) was 25.6 µM (inactive). The GI50 (MDA-N) was 20.6 µM (inactive), the GI50 (NCI/ADR-RES) was 39.8 µM (inactive) and the GI50 (A498) was 13.9 µM (inactive). The GI50 (SF-295) was 20.6 µM (inactive), the GI50 (HOP-92) was 2.92 µM (inactive) and the GI50 (RXF 393) was 12 µM (inactive). For the same molecule, the GI50 (SF-539) was 15.7 µM (inactive), the GI50 (MDA-MB-231) was 20 µM (inactive) and the GI50 (NCI-H23) was 20.3 µM (inactive). For the same molecule, the GI50 (ACHN) was 22.1 µM (inactive), the GI50 (TK-10) was 27.5 µM (inactive) and the GI50 (SW-620) was 17.6 µM (inactive). The GI50 (OVCAR-4) was 13.7 µM (inactive), the GI50 (HCT-15) was 24.3 µM and the GI50 (SNB-19) was 19.4 µM (inactive). For the same molecule, the GI50 (CCRF-CEM) was 1.38 µM (inactive), the GI50 (SK-OV-3) was 87.3 µM (inactive) and the GI50 (SF-268) was 17.5 µM (inactive). For the same molecule, the GI50 (LOX IMVI) was 14.4 µM (inactive), the GI50 (MDA-MB-435) was 20.1 µM (inactive) and the GI50 (SK-MEL-28) was 16.3 µM (inactive). For the same molecule, the GI50 (U-251) was 14.8 µM (inactive), the GI50 (HL-60) was 7.4 µM (inactive) and the GI50 (HCT-116) was 21.8 µM (inactive). For the same molecule, the GI50 (NCI-H226) was 23.8 µM (inactive), the GI50 (786-0) was 16.9 µM (inactive) and the GI50 (Malme-3M) was 17.7 µM (inactive). For the same molecule, the GI50 (BT-549) was 10.1 µM (inactive), the GI50 (RPMI-8226) was 4.07 µM (inactive) and the GI50 (UO-31) was 13.9 µM (inactive). For the same molecule, the GI50 (HCC 2998) was 14.6 µM (inactive), the GI50 (SN12C) was 27.5 µM (inactive) and the GI50 (IGROV-1) was 13.8 µM (inactive). For the same molecule, the GI50 (UACC-257) was 21.2 µM (inactive), the GI50 (NCI-H522) was 12.7 µM (inactive) and the GI50 (A549) was 18.8 µM (inactive). For the same molecule, the GI50 (HOP-62) was 27.9 µM (inactive), the GI50 (OVCAR-8) was 22.4 µM (inactive) and the GI50 (T47D) was 20.9 µM (inactive). The GI50 (M14) was 16.6 µM (inactive), the GI50 (OVCAR-3) was 12.9 µM (inactive) and the GI50 (CAKI-1) was 27.9 µM (inactive). The GI50 (Hs-578T) was < 0.01 µM (active), the GI50 (UACC-62) was 17.3 µM (inactive) and the GI50 (NCI-H460) was 24.8 µM (inactive). For the same molecule, the GI50 (SNB-75) was 0.0658 µM (active), the GI50 (MOLT-4) was 8.77 µM (inactive) and the GI50 (SR) was 0.0566 µM (active). For the same molecule, the GI50 (SK-MEL-5) was 11.9 µM (inactive), the GI50 (OVCAR-5) was 23.5 µM (inactive) and the GI50 (PC-3) was 12.9 µM (inactive). For the same molecule, the GI50 (KM12) was 16.7 µM (inactive) and the GI50 (EKVX) was 26.1 µM (inactive).
